The results in this text go back to PubChem BioAssay AID248 (DTP/NCI, 2004).

Structures are written as SMILES. “And” between values parts separate entries of the source, which are not always exact repeats. Equal entries are not always repeated. Inconclusive results and toxic doses are left out.

For this experiment, the system named is L1210 leukemia ip in BDF1 mice, survival T/C. Nature of the experiment: NCI In Vivo Anticancer Drug Screen. Data for tumor model L1210 Leukemia (intraperitoneal) in B6D2F1 (BDF1) mice. The note with it: endpoint: mean survival time, higher = longer survival. The essentials: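 Transplanted-tumor mice were given test agent; controls received vehicle only. Survival readings from the two groups were divided (treated over control).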

[1] abbreviates: dose: 100.0 mg/kg/injection, schedule: Q04DX003 (ip), vehicle: saline.
Where [2] appears, read: dose: 200.0 mg/kg/injection, schedule: Q04DX003 (ip), vehicle: saline.
Setting [3] is: dose: 400.0 mg/kg/injection, schedule: Q04DX003 (ip), vehicle: saline.
Where [4] appears, read: dose: 100.0 mg/kg/injection, schedule: Q01DX009 (ip), vehicle: saline with Tween-80.
[5] abbreviates: dose: 200.0 mg/kg/injection, schedule: Q01DX009 (ip), vehicle: saline with Tween-80.
Setting [6] is: dose: 100.0 mg/kg/injection, schedule: Q01DX001 (ip), vehicle: saline.
Setting [7] is: dose: 200.0 mg/kg/injection, schedule: Q01DX001 (ip), vehicle: saline.
Where [8] appears, read: dose: 400.0 mg/kg/injection, schedule: Q01DX001 (ip), vehicle: saline.

With `C[C@H](CCC(=O)O)[C@H]1CC[C@H]2[C@@H]3[C@H](O)C[C@@H]4C[C@H](O)CC[C@]4(C)[C@H]3C[C@H](O)[C@]12C` (tested in a mixture with another compound), the T/C was 107 % of control (dose: 37.5 mg/kg/injection, schedule: Q01DX009 (ip), vehicle: saline); 105 % of control (dose: 50.0 mg/kg/injection, schedule: Q04DX003 (ip), vehicle: other); 111 % of control (dose: 75.0 mg/kg/injection, schedule: Q01DX009 (ip), vehicle: saline); 105 % of control (dose: 77.0 mg/kg/injection, schedule: Q01DX Z (ip), vehicle: methylcellulose (MC)); 97 % of control (dose: 80.0 mg/kg/injection, schedule: Q01DX009 (ip), vehicle: other); 115 % of control (dose: 80.0 mg/kg/injection, schedule: Q01DX009 (ip), vehicle: saline). Further, the T/C runs as follows: (dose: 80.0 mg/kg/injection, schedule: Q01DX Z (ip), vehicle: saline) 111 % of control; (dose: 100.0 mg/kg/injection, schedule: Q01DX001 (ip), vehicle: alcohol) 96 % of control; (dose: 100.0 mg/kg/injection, schedule: Q04DX003 (ip), vehicle: other) 97 % of control; (dose: 116.0 mg/kg/injection, schedule: Q01DX Z (ip), vehicle: methylcellulose (MC)) 115 % of control; (dose: 120.0 mg/kg/injection, schedule: Q01DX009 (ip), vehicle: other) 118 % of control; (dose: 120.0 mg/kg/injection, schedule: Q01DX Z (ip), vehicle: saline) 152 % of control. For the same molecule, the T/C (dose: 150.0 mg/kg/injection, schedule: Q01DX009 (ip), vehicle: saline) is 88 % of control; the T/C (dose: 180.0 mg/kg/injection, schedule: Q01DX009 (ip), vehicle: other) is 115 % of control; the T/C (dose: 180.0 mg/kg/injection, schedule: Q01DX Z (ip), vehicle: methylcellulose (MC)) is 115 % of control; the T/C (dose: 180.0 mg/kg/injection, schedule: Q01DX Z (ip), vehicle: saline) was 179 % of control; the T/C (dose: 198.0 mg/kg/injection, schedule: Q04DX003 (ip), vehicle: other) is 115 % of control; the T/C (dose: 200.0 mg/kg/injection, schedule: Q01DX001 (ip), vehicle: alcohol) is 92 % of control. For the same molecule, the T/C is 105 % of control (dose: 200.0 mg/kg/injection, schedule: Q04DX003 (ip), vehicle: other); 96 % of control (dose: 263.0 mg/kg/injection, schedule: Q01DX Z (ip), vehicle: methylcellulose (MC)); 114 % of control (dose: 270.0 mg/kg/injection, schedule: Q01DX Z (ip), vehicle: saline).

For `CCCCC(CC)CN(CCOc1nc(OCCN(CC(CC)CCCC)CC(CC)CCCC)nc(OCCN(CC(CC)CCCC)CC(CC)CCCC)n1)CC(CC)CCCC` (stereo not drawn), the T/C was 102 % of control (dose: 25.6 mg/kg/injection, schedule: Q04DX002 (ip), vehicle: saline with Tween-80); 94 % of control (dose: 64.0 mg/kg/injection, schedule: Q04DX002 (ip), vehicle: saline with Tween-80); 97 % of control (dose: 160.0 mg/kg/injection, schedule: Q04DX002 (ip), vehicle: saline with Tween-80); 94 % of control (dose: 400.0 mg/kg/injection, schedule: Q04DX002 (ip), vehicle: saline with Tween-80).

As for `COC(=O)Nc1c(C)cc(C)cc1C`, the T/C was 94 % of control under setting [1], 94 % of control under setting [2] and 98 % of control under setting [3].

In the case of `COc1ccc(C)cc1NC(=O)OCCOc1cc(C)c(Cl)c(C)c1`, the T/C (dose: 50.0 mg/kg/injection, schedule: Q01DX009 (ip), vehicle: saline with Tween-80) is 90 % of control; the T/C under setting [4] was 87 % of control; the T/C under setting [5] was 87 % of control.

Consider `CC(C)CCOP(=S)(N1CC1)N1CC1`, for which the T/C is 101 % of control (dose: 2.0 mg/kg/injection, schedule: Q01DX015 (ip), vehicle: carboxymethylcellulose (CMC)); 103 % of control (dose: 4.0 mg/kg/injection, schedule: Q01DX015 (ip), vehicle: carboxymethylcellulose (CMC)); 117 % of control (dose: 44.4 mg/kg/injection, schedule: Q01DX001 (ip), vehicle: carboxymethylcellulose (CMC)); 164 % of control (dose: 100.0 mg/kg/injection, schedule: Q01DX001 (ip), vehicle: carboxymethylcellulose (CMC)).

For the molecule `[N-]=[N+]=NCC(=O)NCc1cnccn1`, the T/C runs as follows: (dose: 12.5 mg/kg/injection, schedule: Q01DX009 (ip), vehicle: saline) 114 % of control; (dose: 25.0 mg/kg/injection, schedule: Q01DX009 (ip), vehicle: saline) 105 % of control; (dose: 50.0 mg/kg/injection, schedule: Q01DX009 (ip), vehicle: saline) 112 % of control; under setting [1], 102 % of control; under setting [2], 96 % of control; under setting [3], 96 % of control.

As for `CC(C)CC(C)N` (stereo not drawn), the T/C reads like this: (dose: 50.0 mg/kg/injection, schedule: Q04DX003 (ip), vehicle: Klucel (hydroxypropylcellulose) (HPC)) 93 % of control; (dose: 100.0 mg/kg/injection, schedule: Q04DX003 (ip), vehicle: Klucel (hydroxypropylcellulose) (HPC)) 100 % of control; (dose: 200.0 mg/kg/injection, schedule: Q04DX003 (ip), vehicle: Klucel (hydroxypropylcellulose) (HPC)) 96 % of control.

`CC/C(N)=C\C(=O)c1ccccc1`: the T/C (dose: 100.0 mg/kg/injection, schedule: Q04DX002 (ip), vehicle: Klucel (hydroxypropylcellulose) (HPC)) is 102 % of control; the T/C (dose: 200.0 mg/kg/injection, schedule: Q04DX002 (ip), vehicle: Klucel (hydroxypropylcellulose) (HPC)) is 105 % of control; the T/C (dose: 400.0 mg/kg/injection, schedule: Q04DX002 (ip), vehicle: Klucel (hydroxypropylcellulose) (HPC)) was 98 % of control.

On to `C=CCSc1n[nH]c(=O)[nH]c1=O`, for which the T/C under setting [6] is 111 % of control, the T/C under setting [7] was 92 % of control and the T/C under setting [8] was 103 % of control.

For `COc1ccc(Cl)cc1NC(=O)Oc1ccc2ccccc2c1`, the T/C by setting is: (dose: 100.0 mg/kg/injection, schedule: Q01DX001 (ip), vehicle: saline with Tween-80) 89 % of control; under setting [4], 98 % of control and 100 % of control; (dose: 100.0 mg/kg/injection, schedule: Q04DX003 (ip), vehicle: saline with Tween-80) 91 % of control; (dose: 200.0 mg/kg/injection, schedule: Q01DX001 (ip), vehicle: saline with Tween-80) 100 % of control; under setting [5], 98 % of control and 92 % of control; (dose: 200.0 mg/kg/injection, schedule: Q04DX003 (ip), vehicle: saline with Tween-80) 96 % of control. Besides, the T/C was 96 % of control (dose: 400.0 mg/kg/injection, schedule: Q01DX001 (ip), vehicle: saline with Tween-80); 100 % of control and 91 % of control (dose: 400.0 mg/kg/injection, schedule: Q01DX009 (ip), vehicle: saline with Tween-80); 103 % of control (dose: 400.0 mg/kg/injection, schedule: Q04DX003 (ip), vehicle: saline with Tween-80).

For `CCOC(=O)Nc1ccc(SC)cc1`, the T/C is, setting by setting: (dose: 100.0 mg/kg/injection, schedule: Q01DX009 (ip), vehicle: saline) 94 % of control; (dose: 200.0 mg/kg/injection, schedule: Q01DX009 (ip), vehicle: saline) 100 % of control; (dose: 400.0 mg/kg/injection, schedule: Q01DX009 (ip), vehicle: saline) 103 % of control.

As for `CN(O)CC(=O)O`, the T/C is 95 % of control under setting [6], 98 % of control under setting [7] and 97 % of control under setting [8].

As for `NC(=O)Nc1ccccc1O`, the T/C is, setting by setting: (dose: 75.0 mg/kg/injection, schedule: Q04DX002 (ip), vehicle: saline with Tween-80) 102 % of control; (dose: 150.0 mg/kg/injection, schedule: Q04DX002 (ip), vehicle: saline with Tween-80) 87 % of control; (dose: 300.0 mg/kg/injection, schedule: Q04DX002 (ip), vehicle: saline with Tween-80) 97 % of control.
